From patent US7960584B2, “Compounds, isomer thereof, or pharmaceutically acceptable salts thereof as vanilloid receptor antagonist; and pharmaceutical compositions containing the same” (Amorepacific Corporation, priority 2005, dated 2011) come the findings set out here.

Structures are written as SMILES.

One may read the melting point as the temperature of the solid-liquid transition. One may read the IC50 as the point on the concentration scale where inhibition reaches its midpoint.

Tested on in the first data set: not given
Test: not given
Conditions: not given
In turn, `CC(C)(C)c1ccc(CNC(=O)NCc2ccc(NS(C)(=O)=O)c(Cl)c2)cc1` [Example 22, N-{4-[3-(4-t-butylbenzyl)ureidomethyl]-2-chlorophenyl}methane sulfonamide] registered a melting point of 60 to 61 °C.

Another data set deals with T1, vanilloid receptor (Rattus norvegicus, UniProt O35433).
T1 construct: DRG nerve cells from the primary culture of 2 days were equilibrated; endogenous in cells; host or cells: primary culture of dorsal root ganglion neurons from neonatal SD rats
T1 sequence (O35433 whole entry): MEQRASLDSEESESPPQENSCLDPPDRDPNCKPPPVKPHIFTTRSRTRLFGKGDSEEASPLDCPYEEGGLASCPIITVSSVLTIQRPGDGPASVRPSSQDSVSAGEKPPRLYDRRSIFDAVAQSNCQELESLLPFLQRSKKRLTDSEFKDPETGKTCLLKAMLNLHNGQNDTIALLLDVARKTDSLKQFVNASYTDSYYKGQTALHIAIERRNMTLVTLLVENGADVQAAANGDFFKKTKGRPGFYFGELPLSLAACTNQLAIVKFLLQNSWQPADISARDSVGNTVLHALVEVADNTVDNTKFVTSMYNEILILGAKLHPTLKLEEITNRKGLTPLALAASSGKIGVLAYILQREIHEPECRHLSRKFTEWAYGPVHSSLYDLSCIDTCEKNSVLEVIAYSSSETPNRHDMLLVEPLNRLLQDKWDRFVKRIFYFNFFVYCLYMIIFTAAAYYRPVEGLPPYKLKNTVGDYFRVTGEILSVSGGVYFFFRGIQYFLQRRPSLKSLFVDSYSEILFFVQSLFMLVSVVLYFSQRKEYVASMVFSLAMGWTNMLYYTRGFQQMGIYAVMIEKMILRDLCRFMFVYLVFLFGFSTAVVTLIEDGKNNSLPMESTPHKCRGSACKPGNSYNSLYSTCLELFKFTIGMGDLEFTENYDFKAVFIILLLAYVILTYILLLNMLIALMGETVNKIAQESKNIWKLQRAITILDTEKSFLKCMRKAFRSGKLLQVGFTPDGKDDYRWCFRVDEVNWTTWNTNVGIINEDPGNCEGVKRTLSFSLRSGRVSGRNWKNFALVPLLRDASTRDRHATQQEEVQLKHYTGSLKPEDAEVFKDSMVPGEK
As to the kind of experiment: 45Ca influx test in primary cultured DRG neurons (capsaicin-induced calcium uptake). The format is cell-based. The following applies: neonatal SD rat DRG neurons; capsaicin 0.5 μM; 45Ca 10 μCi/ml; 10 min at room temperature. The procedure: 1) Separation of Spinal Dorsal Root Ganglia (DRG) in Newborn Rats and Primary Culture Thereof
Neonatal (2-3 day old or younger than 2-3 day old) SD rats were put in ice for 5 minutes to anesthetize and disinfected with 70% ethanol. DRG of all part of spinal cord were dissected (Wood et al., 1988, J. Neurosci. 8, pp 3208-3220) and collected in DME/F12 medium to which 1.2 g/l sodium bicarbonate, 50 mg/l gentamycin were added. The DRG were incubated sequentially at 37° C. for 30 min in 200 U/ml collagenase and 2.5 mg/ml trypsin, separately. The ganglia were washed twice with DME/F12 medium supplemented with 10% horse serum, triturated through a fire-polished Pasteur pipette, filtered through Nitex 80 membrane to obtain single cell suspension and the suspension was washed once more. This was subjected to centrifugation, then resuspended in cell culture medium at certain level of cell density. As the cell culture medium, DME/F12 medium supplemented with 10% horse serum was diluted with identical medium conditioned by C6 glioma cells 2 days on a confluent monolayer (1:1), and NGF (Nerve Growth Factor) was added to adjust 200 ng/ml as final concentration. After the cells were grown 2 days in medium where cytosine arabinoside (Ara-C, 100 μM) was added to kill dividing nonneuronal cells, medium was changed to one without Ara-C. The resuspended cells were plated at a density of 1500-2000 neurons/well onto Terasaki plates previously coated with 10 μg/ml poly-D-ornithine.
2) ^45Ca Influx Experiments
DRG nerve cells from the primary culture of 2 days were equilibrated by washing 4 times with HEPES (10 mM, pH 7.4)-buffered Ca^2+, Mg^2+-free HBSS (H-HBSS). The solution in each well was removed from the individual well. Medium containing the test compound plus capsaicin (final concentration 0.5 μM) and ^45Ca (final concentration 10 μCi/ml) in H-HBSS was added to each well and incubated at room temperature for 10 mins. Terasaki plates were washed five times with H-HBSS and dried at room temperature. To each well, 0.3% SDS (10 μl) was added to elute ^45Ca. After the addition of scintillation cocktail of into each well, the amount of ^45Ca influx into neuron was measured by counting radioactivity.
As to `CC(C)(C)c1ccc(/C=C/C(=O)NCc2ccc(NS(C)(=O)=O)c(Cl)c2)cc1` [Example 2, 3-(4-t-Butyl-phenyl)-N-(3-chloro-4-methanesulfonylamino-benzyl)-acrylamide], the IC50 turned out to be 260 nM. The same measure, in the same setting: then `Cc1cc(CNC(=O)/C=C/c2ccc(C(C)(C)C)cc2)ccc1NS(C)(=O)=O` [Example 3, 3-(4-t-Butyl-phenyl)-N-(3-methyl-4-methanesulfonylamino-benzyl)-acrylamide], with 290 nM. On the same count and under the same terms, to `CC(C)(C)c1ccc(/C=C/C(=O)NCc2cc(F)c(NS(C)(=O)=O)c(F)c2)cc1` [Example 4, 3-(4-t-Butyl-phenyl)-N-(3,5-difluoro-4-methanesulfonylamino-benzyl)-acrylamide] belongs 310 nM. Still for that read-out and setting: to `CC(C)(C)c1ccc(/C=C/C(=O)NCc2cc(F)c(NS(C)(=O)=O)cc2F)cc1` [Example 5, 3-(4-t-Butyl-phenyl)-N-(2,5-difluoro-4-methanesulfonylamino-benzyl)-acrylamide] belongs 210 nM. On to `CC(C)(C)c1ccc(/C=C/C(=O)NCc2cc(Cl)c(NS(C)(=O)=O)c(I)c2)cc1` [Example 6, 3-(4-t-Butylphenyl)-N-(3-chloro-5-iodo-4-methanesulfonylamino-benzyl)acrylamide], for which the IC50 came out at 350 nM. The same measure, in the same setting: then `Cc1cc(CNC(=O)/C=C/c2ccc(C(C)(C)C)cc2)cc(Cl)c1NS(C)(=O)=O` [Example 7, 3-(4-t-Butyl-phenyl)-N-(3-chloro-4-methanesulfonylamino-5-methylbenzyl)acrylamide], with 360 nM.

As to `CC(C)(C)c1ccc(/C=C/C(=O)NCc2cc(F)c(NS(C)(=O)=O)c(I)c2)cc1` [Example 8, 3-(4-t-butylphenyl)-N-(3-fluoro-5-iodo-4-methanesulfonylaminobenzyl)acrylamide], the half-maximal inhibitory concentration (IC50) came to 180 nM. Still for that read-out and setting: to `Cc1cc(CNC(=O)/C=C/c2ccc(C(C)(C)C)cc2)cc(F)c1NS(C)(=O)=O` [Example 9, 3-(4-t-Butyl-phenyl)-N-(3-fluoro-4-methanesulfonylamino-5-methyl-benzyl)-acrylamide] belongs 360 nM; to `C/C(=C\c1ccc(C(C)(C)C)cc1)C(=O)NCc1ccc(NS(C)(=O)=O)cc1` [Example 10, 3-(4-t-butylphenyl)-N-(4-methanesulfonylaminobenzyl)-2-methyl-acrylamide], 440 nM; to `C/C(=C\c1ccc(C(C)(C)C)cc1)C(=O)N[C@H](C)c1ccc(NS(C)(=O)=O)cc1` [Example 11, 3-(4-t-Butylphenyl)-N-[1-(R)-(4-methanesulfonylaminophenyl)ethyl]-2-methylacrylamide], 46 nM. The same measure, in the same setting: to `C/C(=C\c1ccc(C(C)(C)C)cc1)C(=O)NCc1ccc(NS(C)(=O)=O)c(F)c1` [Example 12, 3-(4-t-Butylphenyl)-N-(3-fluoro-4-methanesulfonylaminobenzyl)-2-methylacrylamide] belongs 120 nM. Same read-out and setting: to `C/C(=C\C(=O)NCc1ccc(NS(C)(=O)=O)c(F)c1)c1ccc(C(C)(C)C)cc1` [Example 13, 3-(4-t-Butyl-phenyl)-but-2-enoic acid 3-fluoro-4-methanesulfonylamino-benzylamide] belongs 150 nM. For `C/C(=C\c1ccc(C(C)(C)C)cc1)C(=O)N[C@H](C)c1ccc(NS(C)(=O)=O)c(F)c1` [Example 14, 3-(4-t-Butyl-phenyl)-N-[1-(3-fluoro-4-methanesulfonylaminophenyl)ethyl]-2-methylacrylamide], the IC50 was determined as 41 nM. In the case of `CC(C)(C)c1ccc(C#CC(=O)NCc2ccc(NS(C)(=O)=O)cc2)cc1` [Example 15, 3-(4-t-butylphenyl)-N-[4-(methanesulfonylamino)benzyl]propiolicamide], the IC50 is 590 nM. Same read-out and setting: then `C[C@@H](NC(=O)C#Cc1ccc(C(C)(C)C)cc1)c1ccc(NS(C)(=O)=O)cc1` [Example 16, 3-(4-t-butylphenyl)-N-[1-(R)-(4-methanesulfonylaminophenyl)ethyl]propiolicamide], with 100 nM. On the same count and under the same terms, then `CC(C)(C)c1ccc(CNC(=O)NCc2cc(F)c(NS(C)(=O)=O)c(I)c2)cc1` [Example 17, N-{4-[3-(4-t-butylbenzyl)ureidomethyl]-2-fluoro-6-iodophenyl}methanesulfonamide], with 290 nM; and `CC(C)(C)c1ccc(CNC(=O)NCc2cc(I)c(NS(C)(=O)=O)cc2Cl)cc1` [Example 18, N-{4-[3-(4-t-butylbenzyl)ureidomethyl]-5-chloro-2-Iodophenyl}methanesulfonamide], with 530 nM. With `CCc1cc(CNC(=O)NCc2ccc(C(C)(C)C)cc2)cc(F)c1NS(C)(=O)=O` [Example 19, N-{4-[3-(4-t-butylbenzyl)ureidomethyl]-2-ethyl-6-fluorophenyl}methanesulfonamide], the IC50 turned out to be 150 nM.

For the compound `Cc1cc(CNC(=O)NCc2ccc(C(C)(C)C)cc2)ccc1NS(C)(=O)=O` [Example 21, N-{4-[3-(4-t-butylbenzyl)ureidomethyl]-2-methylphenyl}methane sulfonamide], the IC50 came to 83 nM. For the compound `CC(C)(C)c1ccc(CNC(=O)NCc2ccc(NS(C)(=O)=O)c(Cl)c2)cc1` [Example 22, N-{4-[3-(4-t-butylbenzyl)ureidomethyl]-2-chlorophenyl}methane sulfonamide], the IC50 worked out at 240 nM. The same measure, in the same setting: then `CC(C)(C)c1ccc(CNC(=O)NCc2ccc(NS(C)(=O)=O)c([N+](=O)[O-])c2)cc1` [Example 23, N-{4-[3-(4-t-butylbenzyl)ureidomethyl]-2-nitrophenyl}methane sulfonamide], with 240 nM; and `CC(C)(C)c1ccc(CNC(=O)NCc2ccc(NS(C)(=O)=O)c(I)c2)cc1` [Example 24, N-{4-[3-(4-t-Butyl-benzyl)-ureidomethyl]-2-iodo-phenyl}-methanesulfonamide], with 390 nM; and `CC(C)(C)c1ccc(CNC(=O)NCc2cc(F)c(NS(C)(=O)=O)c(F)c2)cc1` [Example 25, N-{4-[3-(4-t-Butyl-benzyl)-ureidomethyl]-2,6-difluoro-phenyl}-methanesulfonamide], with 470 nM. On the same count and under the same terms, then `CC(C)(C)c1ccc(CNC(=O)NCc2cc(F)c(NS(C)(=O)=O)cc2F)cc1` [Example 26, N-{4-[3-(4-t-Butyl-benzyl)-ureidomethyl]-2,5-difluoro-phenyl}-methanesulfonamide], with 560 nM; and `Cc1cc(CNC(=O)NCc2ccc(C(C)(C)C)cc2)cc(Cl)c1NS(C)(=O)=O` [Example 27, N-{4-[3-(4-t-Butylbenzyl)ureidomethyl]-2-chloro-6-methylphenyl}methanesulfonamide], with 190 nM. On the same count and under the same terms, to `CCc1cc(CNC(=O)NCc2ccc(C(C)(C)C)cc2)c(Cl)cc1NS(C)(=O)=O` [Example 28, N-{4-[3-(4-t-Butylbenzyl)-ureidomethyl]-5-chloro-2-ethylphenyl}methanesulfonamide] belongs 290 nM; to `Cc1cc(CNC(=O)NCc2ccc(C(C)(C)C)cc2)cc(F)c1NS(C)(=O)=O` [Example 29, N-{4-[3-(4-t-Butyl-benzyl)-ureidomethyl]-2-fluoro-6-methyl-phenyl}-methanesulfonamide], 73 nM.

The test system of a further data set is Male ICR mice. As to the kind of experiment: Analgesic activity test: mouse writhing test induced with phenyl-p-quinone. The format is in vivo. The following applies: dose 1 mg/kg intraperitoneally 30 min before phenyl-p-quinone 4.5 mg/kg i.p.; writhes counted 6-12 min after. The procedure: 2. Analgesic Activity Test: Mouse Writhing Test by Inducing with Phenyl-p-quinone
Male ICR mice (mean body weight 25 g) were maintained in a controlled lighting environment (12 h on/12 h off) for experiment. Animals received an intraperitoneal injection of 0.3 ml of the chemical irritant phenyl-p-quinone (dissolved in saline containing 5% ethanol to be a dose of 4.5 mg/kg) and 6 mins later, the number of abdominal constrictions was counted in the subsequent 6 mins period. Animals (10 animals/group) received 0.2 ml of test compounds solution in vehicle of ethanol/Tween 80/saline (10/10/80) intraperitoneally 30 min before the injection of phenyl-p-quinone. A reduction in the number of writhes responding to the test drug compound relative to the number responding in saline control group was considered to be indicative of an analgesic effect. Analgesic effect was calculated by % inhibition equation (% inhibition=(C−T)/C×100), wherein C and T represent the number of writhes in control and compound-treated group, respectively (Table 2).
For the compound `C/C(=C\c1ccc(C(C)(C)C)cc1)C(=O)N[C@H](C)c1ccc(NS(C)(=O)=O)cc1` [Example 11, 3-(4-t-Butylphenyl)-N-[1-(R)-(4-methanesulfonylaminophenyl)ethyl]-2-methylacrylamide], the “Analgesic effect (% Inhibition)” value amounted to 56 % Inhibition.

Regarding `C/C(=C\c1ccc(C(C)(C)C)cc1)C(=O)N[C@H](C)c1ccc(NS(C)(=O)=O)c(F)c1` [Example 14, 3-(4-t-Butyl-phenyl)-N-[1-(3-fluoro-4-methanesulfonylaminophenyl)ethyl]-2-methylacrylamide], the “Analgesic effect (% Inhibition)” value turned out to be 42 % Inhibition. On the same count and under the same terms, then `CC(C)(C)c1ccc(CNC(=O)NCc2ccc(NS(C)(=O)=O)c(F)c2)cc1` [Example 20, N-{4-[3-(4-t-butylbenzyl)ureidomethyl]-2-fluorophenyl}methanesulfonamide], with 82 % Inhibition; and `Cc1cc(CNC(=O)NCc2ccc(C(C)(C)C)cc2)ccc1NS(C)(=O)=O` [Example 21, N-{4-[3-(4-t-butylbenzyl)ureidomethyl]-2-methylphenyl}methane sulfonamide], with 58 % Inhibition.

With `Cc1cc(CNC(=O)NCc2ccc(C(C)(C)C)cc2)cc(F)c1NS(C)(=O)=O` [Example 29, N-{4-[3-(4-t-Butyl-benzyl)-ureidomethyl]-2-fluoro-6-methyl-phenyl}-methanesulfonamide], the “Analgesic effect (% Inhibition)” value worked out at 54 % Inhibition.
